Assay results from publication PMC5799307, “Creation of a long-acting nanoformulated dolutegravir” (Nature Communications, 2018).

Test: Ex vivo cleavage kinetics of MDTG in mouse whole blood
Type: in vitro ADME
Conditions: after 60 min
Description: A lipophilic and hydrophobic modified DTG prodrug (called MDTG) was synthesized through myristoylation of the parent drug hydroxyl group. Initially, DTG was dried by co-evaporation from anhydrous pyridine then resuspended in anhydrous DMF and cooled to 0 °C under argon. 2-equivalents DIEA were used to deprotonate the 7-hydroxyl group of DTG, which was then immediately reacted with 2 equivalents myristoyl chloride for 24 h. The resultant product was purified by silica gel column chromatography using an initial mobile phase of 4:1 ethyl acetate: hexanes for 12 fractions, then 9:1 ethyl acetate: hexanes for the remainder. Once purified, fractions containing the UV active prodrug were dried and precipitated from diethyl ether. The precipitate was collected by centrifugation at 3500 r.p.m. for 15 min and dried under vacuum, while the supernatant was discarded. MDTG was synthesized at a final drug yield of 82.8%. Proton nuclear magnetic resonance (^1H NMR), carbon nuclear magnetic resonance (^13C NMR), and Fourier-transform infrared (FTIR) spectroscopy, positive electrospray ionization mass spectroscopy (ESI-MS), and powder X-ray diffraction (XRD) were used to characterize the structure of MDTG. […] ESI-MS specifics (m/z): calculated for C34H45F2N3O6, 629.33 (100%), 630.33 (36.8%), 631.33 (3.9%); found, 630.30. […] The aqueous solubility of DTG and MDTG was evaluated by adding excess drug to water at room temperature then mixing it overnight. […] Solubilized drug in the supernatant was extracted in methanol and measured using a Waters ACQUITY ultra performance liquid chromatography (UPLC) H-Class System with TUV detector and Empower 3 software (Milford, MA). For DTG and MDTG quantitation, drug extracts were separated on a Phenomenex Kinetex 5 μm C18 column (150 × 4.6 mm) (Torrance, CA) using either 65% 50 mM KH2PO4, pH 3.2/35% ACN (DTG) or 90% ACN/10% water (MDTG) with a flow rate of 1.0 mL/min and detected at 254 nm and 230 nm, respectively. Drug content was quantitated by comparison of peak area to those of known standards (0.05–50 µg/mL). Ex vivo cleavage kinetics of MDTG was assessed in mouse whole blood. […]

MDTG cleaved (after acetonitrile (ACN) addition): 21.9% | MDTG hydrolyzed (blood diluted ten-fold): 88.7% | MDTG hydrolyzed (blood spiked with an esterase inhibitor): 15.2% | MDTG cleaved (whole blood, room temperature): 79.9%
SMILES: CCCCCCCCCCCCCC(=O)Oc1c2n(cc(C(=O)NCc3ccc(F)cc3F)c1=O)C[C@@H]1OCC[C@@H](C)N1C2=O [MDTG]
